US20180010188A1, “METHOD FOR DETECTING NONSENSE-MEDIATED RNA DECAY” (The Regents of the University of California, priority 2016, published 2018)

Key:
[1] = system: NMD and non-NMD isoforms of Srsf11, Ptbp2, Tra2b, Hnrnpl and Psd-95 (cellular NMD activity); assay: RT-qPCR of endogenous NMD and non-NMD isoforms to monitor cellular NMD activity; type: cell-based, mouse
Description: In our method, we measure the individual abundance of NMD-sensitive isoforms and that of their non-NMD counterparts via quantitative real-time PCR (qPCR). The NMD isoforms are first examined for differential expression between a treatment and a control condition. An increase in a NMD isoform may be due to NMD inhibition, transcriptional activation or a change in alternative splicing favoring the NMD isoform. These three scenarios can be distinguished by examining the expression of the non-NMD counterparts. Genuine NMD regulation, transcriptional activation and alternative splicing regulation would lead to no change, upregulation and down-regulation of the NMD-insensitive isoforms, respectively (FIG. 6A).
One technical difficulty of our method is designing RT-qPCR primers specific to the cassette exon-skipping isoform, whose entire sequence is contained in the inclusion isoform. To specifically detect an inclusion isoform, we designed a primer entirely annealing to the cassette exon (exon B in FIG. 1A). For the exclusion isoform, junction primers annealing to the exon-skipping junction appear to be the only choices. This can be either a reverse primer (FIG. 1A) with its 5′ portion matching the downstream constitutive exon (exon C) and its 3′ portion matching the upstream constitutive exon (exon A) or a forward primer (not shown) with its 5′ and 3′ portions matching the upstream and downstream exons, respectively. The challenge is herein illustrated with reverse primers but also applies to forward primers. Many exon-skipping junction primers are able to amplify the inclusion isoforms (FIGS. 7A-D). The longer the 3′ portion of the junction primer annealing to the upstream constitutive exon, the easier the primer amplifies the inclusion transcripts (FIG. 7B). Some exon-skipping junction primers with 3′ portions as short as six nucleotides, as we've observed, can still anneal to and detect the inclusion isoform at 55-60° C., albeit at a lower efficiency than its detection of the exclusion isoform. On the other hand, a longer 5′ portion and a shorter 3′ portion increase the possibility of the primer annealing to the exon B-exon C junction because of the sequence similarity around 5′ splice sites (FIGS. 7C-D). We therefore had to identify NMD-associated cassette exons containing a 3′ end unlike that of its upstream exon. We then screened multiple exon-skipping junction primers for one that amplified only the exclusion isoform and not the inclusion isoform. All primer pairs were tested and confirmed for their specificity, RT-qPCR efficiency and linear dynamic ranges (FIG. 10). Finally, two stably expressed housekeeping genes, Gapdh and Sdha, were used as internal controls for normalization by geometric averaging (Vandesompele et al., 2002. Genome Biol 3: RESEARCH0034).
Because our method can be used on its own can to infer NMD regulation with a low false positive rate, one of its applications is unbiased screening for changes in cellular NMD activity. We screened a small panel of widely used pharmacological inhibitors for their effects on NMD. The expression of both the NMD and non-NMD isoforms of Ptbp2, Srsf11, Tra2b, Hnrnpl and Psd-95 were simultaneously measured before and after drug treatment. When the levels of all of the NMD isoforms were altered by a chemical in the same direction, the expression of the NMD and non-NMD isoforms under the treatment and control conditions was then subjected to ANOVA analysis to determine differential regulation of the two isoforms. We were interested in drugs that affected the NMD isoforms across the board and more strongly than the non-NMD counterparts. With this criterion, we identified thapsigargin as having potent activity in blocking cellular NMD.
Neuro-2a (N2a) cells were maintained in N2a complete media consisting of L-glutamine-free Dulbecco's modified Eagle's medium (DMEM), 10% FBS and 1× GlutaMAX at 37° C. […]

[2] = system: cryptic isoforms of A230046K03Rik, Mib1 and Usp15; assay: Quantitative analysis of TDP-43-repressed cryptic exon splicing; type: cell-based, mouse
Description: To investigate the possible compounding effect of ER stress on TDP-43-mediated cryptic isoforms, we examined the expression of TDP-43-repressed cryptic exons with and without thapsigargin treatment. We designed specific PCR primers flanking the previously reported cryptic exons of A230046K03Rik, Mib1 and Usp15 and performed capillary electrophoresis to measure the ratios of the cryptic isoforms to the normal isoforms. The splicing of cryptic exons was not detected in cells treated with control siRNA or DMSO but was drastically boosted by RNAi-mediated depletion of Tdp-43 (FIGS. 5A-E).
Neuro-2a (N2a) cells were maintained in N2a complete media consisting of L-glutamine-free Dulbecco's modified Eagle's medium (DMEM), 10% FBS and 1× GlutaMAX at 37° C. Thapsigargin (VWR, cat. no. 89161-410), ionomycin (Fisher Scientific, cat. no. AG-CN2-0416-M001) and ouabain octahydrate (Fisher Scientific, cat. no. 80055-364) were dissolved in DMSO and stored at −80° C. […]
We optimized the PCR cycle numbers for Psd-95 (28 cycles), A230046K03Rik, Mib1 and Usp15 and eventually used 29 cycles for relative quantification of the transcript isoforms. […] The molar abundance (nM) of each isoform was quantified using QIAxcel Screengel software v1.4. Splicing of the cryptic exon was determined using the following formula. […]

[3] = N2a cells, 5 hours post-treatment

Row | Structure (SMILES) | concentration sufficient to revert the effect of thapsigargin on the NMD isoforms ([1]; N2a cells, thapsigargin plus GSK2606414, Psd-95, Ptbp2, Tra2b) | upregulation of the NMD isoforms in thapsigargin-treated cells ([1]; dose-dependent, 1 hour preincubation) | NMD activity in DMSO-treated cells ([1]; without thapsigargin) | NMD repression at 0.01 μM ([1]; 0.01 μM, 5 hours) | isoform upregulation relative to maximal upregulation ([1]; 0.02 μM) | earliest time of increase of NMD isoform transcripts ([1]; 0.2 μM thapsigargin, N2a cells) | increase of non-NMD isoforms of Ptbp2 and Psd-95 ([1]; 0.2 μM, at 5 hours) | non-NMD isoform levels of Srsf11, Tra2b and Hnrnpl ([1]; 0.2 μM, at 5 hours) | fraction of full NMD inhibition detectable ([1]; 1 hour post-treatment, full inhibition at 5 hours) | concentration at which repressive effect on NMD started to plateau ([1]; N2a cells) | concentration at which Xbp1s splicing and NMD repression plateaued [1, 3] | lowest concentration at which NMD inhibition was observed [1, 3] | lowest concentration inhibiting NMD [1, 3] | NMD inhibition at concentrations above 0.2 μM ([1]; above 0.2 μM (data not shown)) | NMD isoforms in siPerk-pretreated cells ([1]; thapsigargin after 48 hours siPerk) | level of cryptic isoforms in mock-transfected or control siRNA-transfected cells ([2]; 0.2 μM thapsigargin) | level of cryptic isoforms in TDP-43-deficient cells ([2]; 0.2 μM thapsigargin after siTdp43)
1 | Cn1cc(-c2ccc3c(c2)CCN3C(=O)Cc2cccc(C(F)(F)F)c2)c2c(N)ncnc21 [GSK2606414] | ≥ 0.1 µM | effectively reversed | did not affect |  |  |  |  |  |  |  |  |  |  |  |  |  | 
2 | C/C=C(/C)C(=O)O[C@H]1C(C)=C2[C@H]([C@@H]1OC(=O)CCCCCCC)[C@@](C)(OC(C)=O)C[C@H](OC(=O)CCC)[C@@]1(O)[C@H]2OC(=O)[C@@]1(C)O [thapsigargin] |  |  |  | little NMD repression | about 20% | 1 h | around 1.8 fold | barely changed | 20-30% | ≥ 0.2 µM | ≥ 0.1 | 0.02 µM | 20 nM | did not further increase NMD inhibition | none of the NMD isoforms were stimulated | no effect | further increased
